Source: patent publication US8455397B2, “Penoxsulam as a turfgrass, vineyard and orchard floor herbicide” (Dow AgroSciences, LLC, priority 2005, dated 2013)

Tests used:
[1] = tested on: dandelion (TAROF); assay: Granule carrier/particle size, post emergence greenhouse study; format: in vivo, Taraxacum officinale; conditions: postemergent greenhouse
Procedure: (§1) Greenhouse and field studies evaluated the effect of two granule carriers and two particles sizes on the postemergent broadleaf activity of penoxsulam. The two carriers were a 46-0-0 and 28-4-12 fertilizer blend and the particle sizes averaged 0.75 mm and 2.15 mm.
(§2) Greenhouse studies were applied both post and pre-emergence to broadleaf weeds and sedge reared from seed or nutlet in 12.7″ (32.25 cm) by 8.8″ (22.35 cm) flats of a loam soil. Particle size and carrier were evaluated post emergence, carrier comparisons with the smaller particle size of 0.75 was evaluated pre-emergence. Stage of growth of species at post emergence application: PLAMA and TAROF in the 3 to 5 leaf stage, TRFRE in the 3rd tri-foliate stage and CYPES in the 3 to 4 leaf stage. Post emergence trial design was a replicated block, one species per flat, 3 replicate flats per treatment. Granule treatments were uniformly applied to individual flats on an area basis using a common hand-shaker method. Post emergence applications were made to the flat covering both soil and misted foliage. Trial was sub-irrigated daily, and watered over the top 1 time per week starting 7 days after application to simulate a natural rainfall event. Active weed growth was maintained throughout the study period. Weed control of each species in the post emergence study was assessed at 2, 3 and 4 weeks after treatment. Pre-emergence trial design was 2 species per flat, 4 replicate flats, block design. Pre-emergence applications were made to the soil surface using a common hand shaker method on an area basis. Overhead irrigation was maintained throughout the trial. Weed control of each species in the pre-emergence study was assessed at 2, 3, 4 and 5 weeks after application. Control was determined visually by comparing treated and untreated flats and scored on a 0 to 100 percent scale where 0 corresponds to no control and 100 corresponds to complete kill.

[2] = tested on: wild mustard (SINAR); assay: Pre-emergence orchard floor weeds, greenhouse study; format: in vivo, Sinapsis arvense; conditions: 28 Days After Application
Procedure: Greenhouse studies were conducted by seeding species in a loam soil and applying the herbicides to the soil surface using a Cornwall 5 milliliter glass syringe fitted with a TeeJet TN-3 nozzle on an area basis Immediately following herbicide application the pots were irrigated over the top to move the herbicides into the seeding zone. Pots were kept well irrigated throughout the trial. A percent visual weed control assessment was taken 4 weeks after application. Control was determined visually by comparing treated and untreated pots and scored on a 0 to 100 percent scale where 0 corresponds to no control and 100 corresponds to complete kill, or no emergence.

[3] = tested on: white clover (TRFRE); assay: Granule carrier/particle size, postemergent field study; format: in vivo, Trifolium repens L.
Procedure: as §1
(§3) Field studies were conducted in established turfgrass sites containing a natural population of target broadleaf weeds. Replicated trials, containing a minimum of three replications and having individual plots ranging in size from 25 to 50 ft. sq (2.3 to 4.6 square meters), were initiated in the late spring when turf and weeds were actively growing. Granule treatments were uniformly applied to individual plots using a common hand-shaker method. Applications were made in the early morning when dew was present. Natural rainfall and supplemental irrigation were used to maintain healthy turf and active weed growth throughout the study period. Control of each weed species in the study site was made at 2, 4 and 8 weeks after treatment. Control was determined visually by comparing treated and untreated weeds and scored on a 0 to 100 percent scale where 0 corresponds to no control and 100 corresponds to complete kill.

[4] = tested on: turfgrass; conditions: in vivo
[5] = tested on: giant foxtail (SETFA); assay: Pre-emergence weed nursery field study; format: in vivo, Setaria faberi; conditions: weed nursery in the field, 27 Days After Application
Procedure: Field studies were conducted in a non-fumigated weed nursery trial. Weed species were planted in single strips with a row planter at 36 centimeter spacing. Plot size was 3.05×9.2 meters, 4 replicate plots per treatment. Weed species were seeded at appropriate depths and later the same day pre-emergent applications were made to the soil surface. Liquid applications were made using a backpack sprayer calibrated to deliver 187 liters per hectare (L/ha). Applications were made in Fresno, Calif. in June. Sprinkler irrigation was applied at regular intervals throughout study period. Control of each weed species in the study site was made 4 weeks after treatment. Control was determined visually by comparing treated and untreated weeds and scored on a 0 to 100 percent scale where 0 corresponds to no control and 100 corresponds to complete kill or no emergence.

[6] = tested on: broadleaf plantain (PLAMA); assay: Granule carrier/particle size, post emergence greenhouse study; format: in vivo, Plantago major L.; conditions: postemergent greenhouse
Procedure: as §1, §2

[7] = tested on: dandelion (TAROF); assay: Postemergent granule herbicides, turfgrass field studies; format: in vivo, Taraxacum officinale
Procedure: as §3

[8] = tested on: pennywort (dollarweed) (HYDSS); assay: Granule carrier/particle size, postemergent field study; format: in vivo, Hydrocotyle spp
Procedure: as §1, §3

[9] = carrier 28-4-12, particle size 0.75 mm, 5.6 gai/Ha
[10] = carrier 28-4-12, particle size 0.75 mm, 11.2 gai/Ha
[11] = carrier 28-4-12, particle size 0.75 mm, 22.4 gai/Ha
[12] = carrier 28-4-12, particle size 2.15 mm, 5.6 gai/Ha
[13] = carrier 28-4-12, particle size 2.15 mm, 11.2 gai/Ha
[14] = carrier 28-4-12, particle size 2.15 mm, 22.4 gai/Ha
[15] = carrier 46-0-0, particle size 0.75 mm, 5.6 gai/Ha
[16] = carrier 46-0-0, particle size 0.75 mm, 11.2 gai/Ha
[17] = carrier 46-0-0, particle size 0.75 mm, 22.4 gai/Ha
[18] = carrier 46-0-0, particle size 2.15 mm, 5.6 gai/Ha
[19] = carrier 46-0-0, particle size 2.15 mm, 11.2 gai/Ha
[20] = carrier 46-0-0, particle size 2.15 mm, 22.4 gai/Ha

COc1cnc(OC)n2nc(NS(=O)(=O)c3c(OCC(F)F)cccc3C(F)(F)F)nc12 [Penoxsulam, 2-(2,2-difluoroethoxy)-N-(5,8-dimethoxy[1,2,4]triazolo[1,5-c]-pyrimidin-2-yl)-6-(trifluoromethyl)benzenesulfonamide]
Percent Weed Control 27-30 DAA [1, 9]: 50% | Percent Weed Control 27-30 DAA [1, 10]: 88% | Percent Weed Control 27-30 DAA [1, 11]: 97% | Percent Weed Control 27-30 DAA [1, 12]: 23% | Percent Weed Control 27-30 DAA [1, 13]: 60% | Percent Weed Control 27-30 DAA [1, 14]: 68% | Percent Weed Control 27-30 DAA [1, 15]: 55% | Percent Weed Control 27-30 DAA [1, 16]: 67% | Percent Weed Control 27-30 DAA [1, 17]: 98% | Percent Weed Control 27-30 DAA [1, 18]: 23% | Percent Weed Control 27-30 DAA [1, 19]: 48% | Percent Weed Control 27-30 DAA [1, 20]: 60% | Pre-emergent Percent Mean Control ([2]; 8.8 gai/Ha): 79% | Pre-emergent Percent Mean Control ([2]; 17.5 gai/Ha): 91% | Pre-emergent Percent Mean Control ([2]; 35 gai/Ha): 98% | Pre-emergent Percent Mean Control ([2]; 70 gai/Ha): 98% | Percent Weed Control 26-27 DAA [3, 10]: 80% | Percent Weed Control 26-27 DAA [3, 11]: 97% | Percent Weed Control 26-27 DAA [3, 13]: 48% | Percent Weed Control 26-27 DAA [3, 14]: 70% | Percent Weed Control 26-27 DAA [3, 16]: 82% | Percent Weed Control 26-27 DAA [3, 17]: 95% | Percent Weed Control 26-27 DAA [3, 19]: 34% | Percent Weed Control 26-27 DAA [3, 20]: 78% | damage to mature, well-established turfgrass [4]: acceptable or no damage | Pre-emergent Percent Mean Control ([5]; 8.8 gai/Ha): 70% | Pre-emergent Percent Mean Control ([5]; 17.5 gai/Ha): 78% | Pre-emergent Percent Mean Control ([5]; 35 gai/Ha): 88% | Pre-emergent Percent Mean Control ([5]; 70 gai/Ha): 96% | Percent Weed Control 27-30 DAA [6, 9]: 35% | Percent Weed Control 27-30 DAA [6, 10]: 75% | Percent Weed Control 27-30 DAA [6, 11]: 96% | Percent Weed Control 27-30 DAA [6, 12]: 0% | Percent Weed Control 27-30 DAA [6, 13]: 27% | Percent Weed Control 27-30 DAA [6, 14]: 38% | Percent Weed Control 27-30 DAA [6, 15]: 47% | Percent Weed Control 27-30 DAA [6, 16]: 77% | Percent Weed Control 27-30 DAA [6, 17]: 97% | Percent Weed Control 27-30 DAA [6, 18]: 8% | Percent Weed Control 27-30 DAA [6, 19]: 15% | Percent Weed Control 27-30 DAA [6, 20]: 50% | Mean Percent Weed Control ([7]; Table I, 4 Weeks After Treatment, 5 sites, Penoxsulam 140 gai/Ha, Scotts Plus 2 1682+841 gae/Ha, Trimec 1121+516+112 gae/Ha): 93% | Mean Percent Weed Control ([7]; Table I, 8 Weeks After Treatment, 5 sites, Penoxsulam 140 gai/Ha, Scotts Plus 2 1682+841 gae/Ha, Trimec 1121+516+112 gae/Ha): 87% | Mean Percent Weed Control ([7]; Table III, 4 Weeks After Treatment, 22.4 gai/Ha, 6 sites): 45% | Mean Percent Weed Control ([7]; Table III, 4 Weeks After Treatment, 44.9 gai/Ha, 6 sites): 61% | Mean Percent Weed Control ([7]; Table III, 4 Weeks After Treatment, 67.3 gai/Ha, 6 sites): 61% | Mean Percent Weed Control ([7]; Table III, 4 Weeks After Treatment, 100 gai/Ha, 6 sites): 69% | Mean Percent Weed Control ([7]; Table III, 8 Weeks After Treatment, 22.4 gai/Ha, 6 sites): 25% | Mean Percent Weed Control ([7]; Table III, 8 Weeks After Treatment, 44.9 gai/Ha, 6 sites): 45% | Mean Percent Weed Control ([7]; Table III, 8 Weeks After Treatment, 67.3 gai/Ha, 6 sites): 47% | Mean Percent Weed Control ([7]; Table III, 8 Weeks After Treatment, 100 gai/Ha, 6 sites): 57% | Percent Weed Control 26-27 DAA [8, 10]: 56% | Percent Weed Control 26-27 DAA [8, 11]: 70% | Percent Weed Control 26-27 DAA [8, 13]: 49% | Percent Weed Control 26-27 DAA [8, 14]: 42% | Percent Weed Control 26-27 DAA [8, 16]: 44% | Percent Weed Control 26-27 DAA [8, 17]: 87% | Percent Weed Control 26-27 DAA [8, 19]: 38% | Percent Weed Control 26-27 DAA [8, 20]: 75%
